Experiment [1] can be described thus: Immunization of mice with TAS1R3 peptide, titration of bleeds. Particulars: 4 plus 2 doses of 50 μg of peptide. It is filed as in vivo. Here is the method: The resulting protein was purified to homogeneity with a final purity of 90-95%, 2 mg conjugated to KLH, 3 mg conjugated to BSA. The design of the genomic construct was carried out based on the literature (Maitrepierre et al., 2012). Likewise, a study of storage buffer formulation was carried out to preserve the integrity of the protein (restricting the use of detergents and polysaccharides in the final formula). The batch obtained was aliquoted in labeled sterile vials and stored at −80° C. until use. After several immunizations of the mice with 4 plus 2 doses of 50 μg of peptide, the bleeds were titrated in order to evaluate the increase of the response against the peptide.

Experiment [2] concerns SW620 cells. The experiment in a line: Beta-galactosidase staining for cellular senescence. The format is cell-based, human. Particulars: SW620, low glucose medium, 3.5 mg/mL, 72 hours (FIG. 8D). Here is the method: To determine whether after cell incubation with the ligand cell senescence is induced, 500,000 cells of the SW620 line were cultured in 6-well plates and medium with low glucose concentration. In several wells, ligand (3.5 mg/mL) was added. After 72 hours, the wells were washed and fixed (2% formaldehyde, 0.2% glutaraldehyde in PBS) for 15 minutes at room temperature. The solution was eliminated giving three washes with 1×PBS, and then the staining solution was applied, calculated for one milliliter of solution: 200 μL citric acid/phosphate buffer, pH 6.0 (dibasic sodium phosphate (Na2HPO4) 0.2 M+0.1 M citric acid), 30 μL 5 M NaCl, 50 μL potassium ferricyanide (K3[Fe(CN)6]) 100 mM, 50 μL potassium ferrocyanide (K4[Fe(CN)6]) 100 mM, 2 μL magnesium chloride (MgCl2) 1 M, 50 μL solution X-gal (20 mg/mL of 5-bromo-4-chloro-3-indolyl β D-galactopyranoside in […]) and 618 μL distilled water. It was incubated in the oven at 37° C. overnight, the wells were washed with distilled water in motion twice, to then apply PBS 1× and observe the possible senescent cells under the Vert microscope. Al, Zeiss®. Blue staining is observed, corresponding to cells in senescence.

Experiment [3] relates to SW620 cells. The experiment in a line: Colony formation of SW620 cells with free ligand. The format is cell-based, human. Particulars: SW620, low glucose medium, 3.5 mg/mL ligand, 15 days, versus control SW620 (FIG. 8C). Here is the method:
Cell proliferation studies were carried out in SW620 cells, FIG. 7A, cultured in medium with high and low glucose concentration. The cells were trypsinized and plated the same number of cells in order to count them at times 0, 24, 72, 96 and 168 hours, using for this the Neubauer chamber, after trypsinization thereof. In an analogous manner, cell proliferation studies were carried out in medium with the presence of free ligand, FIG. 8, which was added to the culture medium at different concentrations. Photos were taken using the microscope (Leica DMIL® microscope) and subsequently they were trypsinized, and the number of cells was counted to make the comparison between these and the starting ones in order to observe the effect of the ligand on the cells. […] However, when studies of colony formation were carried out, starting from an amount of 200 cells per well and waiting for 15 days, it was observed that cells cultured in medium with low concentration of glucose, and that express higher levels of receptor, formed more colonies than those grown in high glucose medium (FIG. 7B). For colony formation studies, 12 well plates were used, plating in different amounts of cells (200, 400,600 and 800 cells per well), in medium with high (4500 mg/L) and low (1000 mg/L) content of glucose. […]

For experiment [4], the system named is TAS1R3 receptor. The experiment in a line: RT-PCR of TAS1R3 receptor in SW620 cells kept in contact with lactisole. The settings on record: SW620, low glucose medium, lactisole for 9 days, versus controls (FIG. 8A). It is filed as cell-based, human.
Procedure: Metastatic colon cells from the lymph node (SW620, CCL-227), colorectal adenocarcinoma epithelial cells (SW480, CCL-228), lung carcinoma epithelial cells (A549, CCL-185), and metastatic lung cells from the liver (H1755, CRL-5892), pancreatic carcinoma cells (MIA PaCa-2, CRL-1420), and glioblastoma cells (U118, HTB-15 and U87MG, HTB-14) were used. The SW620, SW480, A549, U118 and U87MG lines were maintained in DMEM HG medium (Dulbecco's Modified Eagle's Medium—High glucose, Sigma-Aldrich), and the H1755 line in RPMI 1640 medium (Gibco®, LifeTecnologies), both supplemented to the 10% with fetal bovine serum (Gibco®, LifeTecnologies) and 1% with antibiotic (penicillin and streptomycin, Sigma-Aldrich). For the quantitative analysis of the expression of TAS1R3, a polymerase chain reaction was carried out with reverse transcriptase (RT-PCR), starting from RNA extracted from all cell lines in culture. […] RNA extraction was carried out using the extraction kit (GeneJET RNA Purification Kit, ThermoScientic), and the analysis was carried out in a manner similar to that described in a previous paragraph. Once the procedure was finished, the data were analyzed.
Experiment [5] has as its system p-ERK, p-AKT, IGF-IR. The experiment in a line: Western blot of proteins involved in tumor progression in SW620 cells. It is filed as cell-based, human. The settings on record: SW620, lactisole 3.5 mg/ml or high glucose (HG), 9 days (FIG. 8E). Here is the method:
FIG. 8. RT-PCR of the receptor when the cells are kept in contact with lactisole for 9 days, comparing it with the controls (SW620 cultured in medium with low glucose concentration) (A). Cell proliferation of SW620 cells cultured in medium with low glucose concentration, and increasing concentrations of lactisole (from 0.44 mg/mL to 7 mg/mL) for 72 h (B). Colony formation of control SW620 cells or in contact with the lactisole ligand, at a concentration of 3.5 mg/mL, after 15 days of culture (C). Beta-galactosidase staining, indicative of cellular senescence, in SW620 cells treated with lactisole (3.5 mg/mL for 72 hours, arrows show cells where staining can be seen) (D). […]
For the qualitative study of proteins, Western Blot was performed from proteins isolated from the SW620 cell line, and the results are shown in FIG. 6 (B). […] The total protein of each sample was quantified by the […] (conversion method of bicathionic to monocationic copper in alkaline conditions influenced by specific amino acids such as cysteine, cystine, tryptophan, tyrosine and also by the peptide chain; the amount of bicathionic copper will depend of the amount of these components and will be determined spectrophotopically) using the commercial kit DC-Assay (BIO-RAD®) and establishing a calibration line with bovine serum albumin (BSA, Sigma-Aldrich). […]
A general note: In western blotting, separated proteins are transferred to a membrane and probed.

Experiment [6] relates to SW620 cells. The experiment in a line: Cell proliferation of SW620 cells with free ligand in the medium (cell counting). The format is cell-based, human. Here is the method:
FIG. 8. RT-PCR of the receptor when the cells are kept in contact with lactisole for 9 days, comparing it with the controls (SW620 cultured in medium with low glucose concentration) (A). Cell proliferation of SW620 cells cultured in medium with low glucose concentration, and increasing concentrations of lactisole (from 0.44 mg/mL to 7 mg/mL) for 72 h (B). Colony formation of control SW620 cells or in contact with the lactisole ligand, at a concentration of 3.5 mg/mL, after 15 days of culture (C). Beta-galactosidase staining, indicative of cellular senescence, in SW620 cells treated with lactisole (3.5 mg/mL for 72 hours, arrows show cells where staining can be seen) (D). Western blot showing the expression of different proteins involved in tumor progression in SW620 cells when they are exposed to different glucose concentrations (high and low) and lactisole (3.5 mg/ml) for 9 days (E). […] Cell proliferation studies were carried out in SW620 cells, FIG. 7A, cultured in medium with high and low glucose concentration. […] Photos were taken using the microscope (Leica DMIL® microscope) and subsequently they were trypsinized, and the number of cells was counted to make the comparison between these and the starting ones in order to observe the effect of the ligand on the cells. […]

Turning to “Acetyl-LSQQLRMKGDYVLGGC-amide (Ac-LSQQLRMKGDYVLGGC-NH2) [TAS1R3 N-terminal extracellular peptide immunogen, conjugated to KLH / BSA]”, the “Response against the peptide (titration of bleeds)” value in experiment [1] is recorded as “some response against the peptide, although with very low values”.
For the compound `COc1ccc(OC(C)C(=O)O)cc1` (stereo not shown) [lactisole, Lactisole], the “Cellular senescence (beta-galactosidase staining)” value in experiment [2] is recorded as “induction of cellular senescence”. Besides, the Colony formation result in experiment [3] is reported as “no representative colony formed on the plate was observed”. For the same compound, the “Expression of the TAS1R3 receptor (RT-PCR)” value in experiment [4] is reported as “increase in the expression of the receptor”. The “Activation of pathways related to tumor progression (western blot)” value in experiment [5] was “activates pathways related to tumor progression, such as p-ERK, p-AKT or IGF-IR”. Also, the Cell proliferation entry in experiment [6] (SW620, low glucose medium, lactisole 0.44 to 7 mg/mL, 72 h, effect at higher concentrations (FIG. 8B)) is reported as “interferes with cell proliferation”.
Turning to “CFYDEKR [peptide derived from brazzein, brazzein peptide, ligand for TAS1R3]”, the Cell proliferation entry in experiment [6] (SW620, DMEM supplemented with different receptor ligands, extent depends on concentration and molecule (FIG. 8F)) was “interfere with proliferation”.
